As usually defined, the inhibition is the percentage by which the read-out fell short of the control.

Structures can show the parent of a compound that is named as a salt.

Our source for the inhibition values is US8703796B2, “3H-imidazo [4, 5-B] pyridine-6-carboxamides as anti-inflammatory agents” (Boehringer Ingelheim International GmbH, priority 2008, dated 2014).

The target in the assay is T1, recombinant human mPGES-1 (Homo sapiens, UniProt O14684).
T1 construct: made in house; host or cells: Rosetta E. coli (microsomal/membrane fraction)
T1 sequence (O14684 1-152): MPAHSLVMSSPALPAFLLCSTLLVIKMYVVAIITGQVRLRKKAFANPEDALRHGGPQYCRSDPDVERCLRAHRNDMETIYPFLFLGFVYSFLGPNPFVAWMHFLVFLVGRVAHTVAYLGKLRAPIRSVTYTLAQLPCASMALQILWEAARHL
Kind of assay: mPGES-1 inhibition, HTRF detection of PGE2. In kind it is biochemical. On the procedure: Microsomes from Rosetta E. coli bacteria expressing recombinant human mPGES-1 is dissolved in 0.1 M KPi pH 7.4 buffer containing 2.5 mM GSH. 50 μl of the enzyme is subsequently dispensed in a 384-well plate. 0.5 μl of the inhibitor dissolved in DMSO at is thereafter added to each well and incubated for 25 minutes at room temperature. Subsequently, 2 μl of PGH2 dissolved in an appropriate solvent is added to each well and after one minute the acidified stop solution containing FeCl2 is added. 4 μl of the total volume is transferred to a separate plate and diluted 750-fold in two separate steps before HTRF detection of PGE2.
The HTRf detection is performed by the use of a commercially available kit from CisBio essentially according to the manufacturer's protocol. Briefly, 10 μl of the diluted sample is transferred to a white 384-well plate. 5 μl of d2 and 5 μl Eu3+-Cryptate labeled anti-PGE2 is added to each well containing samples by the use of a Multidrop. The plate is covered with a plastic self-adhesive film, centrifuged at 1200 rpm for 1 minute and subsequently stored at +4° C. over night.
After over night incubation the fluorescence is measured by the use of an appropriate microplate reader. The fluorescence of europium cryptate, and d2 are measured using the following excitation and emission wavelength, europium cryptate: λmax^ex=307 nm, λmax^em=620 nm and d2: λmax^ex=620 nm, λmax^em=665 nm), respectively. The extent of the specific FRET is measured as a ratio of the emission intensity at 665 nm vs. that at 620 nm. A standard curve using synthetic PGE2 is used to quantify the amount of PGE2 in unknown samples.
(In TR-FRET formats the signal depends on donor and acceptor labels being close together.)
On to `CC1(C)CCC(NC(=O)c2cnc3[nH]c(Nc4c(Cl)cccc4Cl)nc3c2)CC1` [Example 429, 2-(2,6-Dichlorophenylamino)-N-(4,4-dimethylcyclohexyl)-3H-imidazo[4,5-b]pyridine-6-carboxamide], for which the inhibition at 10 µM worked out at 97%.
The same measure, in the same setting: then `Cn1c(Nc2cnccc2C(F)(F)F)nc2cc(C(=O)N[C@H]3CC[C@H](C(F)(F)F)CC3)c(OCC(F)F)nc21` [Example 789, 2-(4-Trifluoromethyl-pyridin-3-ylamino)-5-(2,2-difluoro-ethoxy)-N-(trans-4-trifluoromethyl-cyclohexyl)-3-methyl-3H-imidazo[4,5-b]pyridine-6-carboxamide], with 95%; and `CC(=O)N(C)CCOc1nc2[nH]c(Nc3c(Cl)cncc3Cl)nc2cc1C(=O)NCC(F)(F)C(F)(F)C(F)(F)C(F)(F)F` [Example 809, 2-(3,5-Dichloro-pyridin-4-ylamino)-5-(2-(acetyl-methyl-amino)-ethoxy)-N-(2,2,3,3,4,4,5,5,5-nonafluoro-pentyl)-3H-imidazo[4,5-b]pyridine-6-carboxamide], with 100%; and `O=C(NCc1ncccc1C(F)(F)F)c1cc2nc(Nc3c(Cl)cc(F)cc3Cl)[nH]c2nc1OCC(F)F` [Example 826, 2-(2,6-Dichloro-4-fluoro-phenylamino)-5-(2,2-difluoro-ethoxy)-N-((3-trifluoromethyl-pyridin-2-yl)-methyl)-3H-imidazo[4,5-b]pyridine-6-carboxamide], with 100%.
On to `O=C(NCC(F)(F)C(F)(F)C(F)(F)C(F)(F)F)c1cc2nc(Nc3c(Cl)cc(F)cc3Cl)[nH]c2nc1OCC(F)(F)F` [Example 829, 2-(2,6-Dichloro-4-fluoro-phenylamino)-5-(2,2,2-trifluoro-ethoxy)-N-(2,2,3,3,4,4,5,5,5-nonafluoropentyl)-3H-imidazo[4,5-b]pyridine-6-carboxamide], for which the inhibition at 10 µM was 100%.
For `COc1nc2c(cc1C(=O)Nc1ccc(Br)cc1)nc(Nc1c(Cl)cccc1Cl)n2C` [Example 377, N-(4-Bromophenyl)-2-(2,6-dichlorophenylamino)-5-methoxy-3-methyl-3H-imidazo[4,5-b]pyridine-6-carboxamide], the inhibition at 10 µM stood at 100%.
Regarding `O=C(N[C@H]1CC[C@H](C(F)(F)F)CC1)c1cc2nc(Nc3c(F)cccc3C(F)(F)F)[nH]c2nc1OCC(F)F` [Example 781, 2-(2-Fluoro-6-trifluoromethyl-phenylamino)-5-(2,2-difluoro-ethoxy)-N-(trans-4-trifluoromethyl-cyclohexyl)-3H-imidazo[4,5-b]pyridine-6-carboxamide], the inhibition at 1 µM is 99%.
On to `Cn1c(Nc2c(F)cccc2Cl)nc2cc(C(=O)N[C@H]3CC[C@H](C)CC3)cnc21` [Example 486, 2-(2-Chloro-6-fluorophenylamino)-3-methyl-N-((1r,4r)-4-methycyclohexyl)-3H-imidazo[4,5-b]pyridine-6-carboxamide], for which the inhibition at 10 µM was 100%.
Regarding `CC#CCn1c(Nc2c(Cl)cccc2Cl)nc2cc(C(=O)NC3CCCCC3)cnc21` [Example 523, 3-(But-2-ynyl)-N-cyclohexyl-2-(2,6-dichlorophenylamino)-3H-imidazo[4,5-b]pyridine-6-carboxamide], the inhibition at 10 µM was 96%.
Still for that read-out and setting: for `O=C(Nc1cc(C(F)(F)F)ccn1)c1cc2nc(Nc3c(Cl)cncc3Cl)[nH]c2nc1OCC(F)(F)F` [Example 857, 2-(3,5-Dichloro-pyridin-4-ylamino)-5-(2,2,2-trifluoro-ethoxy)-N-(4-trifluoromethyl-pyridin-2-yl)-3H-imidazo[4,5-b]pyridine-6-carboxamide] the value was 99%.
Still for that read-out and setting: then `Cn1c(Nc2ccccc2C(F)(F)F)nc2cc(C(=O)N[C@H]3CC[C@H](C(F)(F)F)CC3)c(OCC(F)F)nc21` [Example 782, 2-(2-Trifluoromethyl-phenylamino)-5-(2,2-difluoro-ethoxy)-N-(trans-4-trifluoromethyl-cyclohexyl)-3-methyl-3H-imidazo[4,5-b]pyridine-6-carboxamide], with 100%; and `Cc1ccnc(Cl)c1Nc1nc2cc(C(=O)N[C@H]3CC[C@H](C(F)(F)F)CC3)c(OCC(F)F)nc2[nH]1` [Example 797, 2-(2-Chloro-4-methyl-pyridin-3-ylamino)-5-(2,2-difluoro-ethoxy)-N-(trans-4-trifluoromethyl-cyclohexyl)-3H-imidazo[4,5-b]pyridine-6-carboxamide], with 100%.
On the same count and under the same terms, for `Cn1c(Nc2c(Cl)cncc2Cl)nc2cc(C(=O)NCC(F)(F)C(F)(F)C(F)(F)C(F)(F)F)c(OCCF)nc21` [Example 834, 2-(3,5-Dichloro-pyridin-4-ylamino)-5-(2-fluoro-ethoxy)-N-(2,2,3,3,4,4,5,5,5-nonafluoropentyl)-3-methyl-3H-imidazo[4,5-b]pyridine-6-carboxamide] the value was 99%.
`O=C(Nc1ccc(Br)cc1)c1cc2nc(Nc3c(F)cccc3C(F)(F)F)[nH]c2nc1OCC(F)F` [Example 774, N-(4-Bromo-phenyl)-2-(2-fluoro-6-trifluoromethyl-phenylamino)-5-(2,2-difluoroethoxy)-3H-imidazo[4,5-b]pyridine-6-carboxamide]: the inhibition at 1 µM is 100%.
Regarding `O=C(Nc1cc(C(F)(F)F)ccn1)c1cc2nc(Nc3c(Cl)cncc3Cl)[nH]c2nc1OCC(F)F` [Example 803, 2-(3,5-Dichloro-pyridin-4-ylamino)-5-(2,2-difluoro-ethoxy)-N-(4-trifluoromethyl-pyridin-2-yl)-3H-imidazo[4,5-b]pyridine-6-carboxamide], the inhibition at 10 µM is 99%.
On the same count and under the same terms, then `Cn1c(Nc2c(Cl)cncc2Cl)nc2cc(C(=O)NCC(F)(F)C(F)(F)C(F)(F)C(F)(F)F)c(OCC(F)(F)F)nc21` [Example 850, 2-(3,5-Dichloro-pyridin-4-ylamino)-5-(2,2,2-trifluoro-ethoxy)-N-(2,2,3,3,4,4,5,5,5-nonafluoro-pentyl)-3-methyl-3H-imidazo[4,5-b]pyridine-6-carboxamide], with 99%; and `CCCC[C@@H](C)NC(=O)c1cnc2[nH]c(Nc3c(Cl)cccc3Cl)nc2c1` [Example 517, (R)-2-(2,6-Dichlorophenylamino)-N-(hex-2-yl)-3H-imidazo[4,5-b]pyridine-6-carboxamide], with 100%; and `O=C(NCc1ncccc1C(F)(F)F)c1cc2nc(Nc3c(Cl)cc(F)cc3Cl)[nH]c2nc1OCC(F)(F)F` [Example 830, 2-(2,6-Dichloro-4-fluoro-phenylamino)-5-(2,2,2-trifluoro-ethoxy)-N-((3-trifluoromethyl-pyridin-2-yl)-methyl)-3H-imidazo[4,5-b]pyridine-6-carboxamide], with 98%.
Same read-out and setting: then `O=C(N[C@H]1CC[C@H](C(F)(F)F)CC1)c1cc2nc(Nc3ccccc3C(F)(F)F)[nH]c2nc1OCC(F)F` [Example 784, 2-(2-Trifluoromethyl-phenylamino)-5-(2,2-difluoro-ethoxy)-N-(trans-4-trifluoromethyl-cyclohexyl)-3H-imidazo[4,5-b]pyridine-6-carboxamide], with 97%.
The same measure, in the same setting: for `COCCOc1nc2[nH]c(Nc3c(Cl)cc(F)cc3Cl)nc2cc1C(=O)N[C@H]1CC[C@H](C(F)(F)F)CC1` [Example 867, 2-(2,6-Dichloro-4-fluoro-phenylamino)-5-(2-methoxy-ethoxy)-N-(trans-4-trifluoromethyl-cyclohexyl)-3H-imidazo[4,5-b]pyridine-6-carboxamide] the value was 100%.
For `Cn1c(Nc2c(Cl)cc(F)cc2Cl)nc2cc(C(=O)NCC(F)(F)C(F)(F)C(F)(F)C(F)(F)F)c(OCC(F)F)nc21` [Example 872, 2-(2,6-Dichloro-4-fluoro-phenylamino)-5-(2,2-difluoro-ethoxy)-N-(2,2,3,3,4,4,5,5,5-nonafluoropentyl)-3-methyl-3H-imidazo[4,5-b]pyridine-6-carboxamide], the inhibition at 10 µM worked out at 100%.
The same measure, in the same setting: then `Cn1c(Nc2c(Cl)cccc2Cl)nc2cc(C(=O)NC3CCC4(CC4)C3)cnc21` (stereo not drawn) [Example 506, 2-(2,6-Dichlorophenylamino)-3-methyl-N-(spiro[2.4]heptan-5-yl)-3H-imidazo[4,5-b]pyridine-6-carboxamide], with 100%; and `CC(C)n1c(Nc2ccccc2Cl)nc2cc(C(=O)NC3CCC(C)(C)CC3)cnc21` [Example 541, 2-(2-Chlorophenylamino)-N-(4,4-dimethylcyclohexyl)-3-isopropyl-3H-imidazo[4,5-b]pyridine-6-carboxamide hydrochloride], with 74%; and `Cn1c(Nc2c(Cl)cc(F)cc2Cl)nc2cc(C(=O)N[C@H]3CC[C@H](C(F)(F)F)CC3)c(OCC(F)F)nc21` [Example 863, 2-(2,6-Dichloro-4-fluoro-phenylamino)-5-(2,2-difluoro-ethoxy)-N-(trans-4-trifluoromethyl-cyclohexyl)-3-methyl-3H-imidazo[4,5-b]pyridine-6-carboxamide], with 82%.
